Experimental data taken from patent USRE30241E, “Esters of 3-(hydroxy or hydroxymethyl)-4-hydroxyphenyl aminomethyl ketones” (Sterling Drug Inc., priority 1970, dated 1980).
Where two headings read alike, the source gives them in different places.

Tests used:
heart rate = assay: Cardiovascular studies: effect on the heart rate in the anesthetized dog; assay type: in vivo
Method in brief: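 Anesthetized dogs, mostly spontaneously breathing, some open-chest, given rapid intravenous injections. Heart rate by electrocardiograph with blood pressure recorded simultaneously, every 0.5-1 minute for 10 minutes then every 2-5 minutes until recovery; several doses or compounds sometimes tested alternately in one dog.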

[1] = system: guinea pig bronchioles constricted by carbachol; assay: Bronchodilator Test Method II, in vitro perfused guinea pig lung
Experimental: In this method bronchodilator activity in vitro was determined by testing the effect of graded doses of the test compounds on guinea pig bronchioles constricted by carbachol, using the technique reported by Sollman and von Oettingen, Proc. Soc, Exp. Biol. Med., 25,692 (1928) as modified by Tainter, Pedden, and James, J. Pharm. Exp. Ther., 51, 371 (1934) and by Luduena, von Euler, Tullar, and Lands, Arch. intern. Pharmacol., III, 392 (1957).

[2] = system: carbachol- or histamine-induced bronchoconstriction; assay: Bronchodilator Test Method I, anesthetized dog, intravenous activity; assay type: in vivo; details: Canis lupus familiaris, 1 min, 1-2 min, read-out: Bronchodilatation
Method in brief: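 Pentobarbital-anesthetized (30 mg/kg i.v.), open-chest, artificially ventilated dogs were given i.v. carbachol (4-6 µg/kg) or histamine diphosphate (35-45 µg/kg). Test compound was given i.v. mixed with, after, or 1-10 min before the constrictor.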

[3] = system: carbachol- or histamine-induced bronchoconstriction; assay: Bronchodilator Test Method I, anesthetized dog, intraduodenal activity; assay type: in vivo; details: Canis lupus familiaris, read-out: Bronchodilation; for inhibition in vivo at 0.035 mg/kg: 35 mcg/kg (salt) intraduodenal; for inhibition in vivo at 0.07 mg/kg: 70 mcg/kg (salt) intraduodenal; for inhibition in vivo at 0.28 mg/kg: 280 mcg/kg (salt) intraduodenal
Method in brief: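 Pentobarbital-anesthetized (30 mg/kg i.v.) open-chest dogs of 9-18 kg, artificially ventilated; airway pressure recorded via tracheal cannula transducer. Test solution injected intraduodenally; from 5 min, i.v. carbachol (4-6 μg/kg) or histamine diphosphate (35-45 μg/kg) challenges every 30-60 min gauged degree and duration of bronchodilation.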

[4] = Stability of test solutions; details: ethylenediaminetetraacetic acid added; distilled water or saline solutions
diastolic blood pressure = assay: Effect on diastolic blood pressure in the anesthetized dog; assay type: in vivo
Experimental: The effect of a rapid intravenous injection on the heart rate the heart rate was conducted in anesthetized dogs under normal respiration. A few open-chest dogs were also tested. Increase in heart rate was measured by using an electrocardiograph attached to the dog. Readings were taken every 0.5-1 minute for the first 10 minutes and every 2-5 minutes thereafter until recovery. In some cases, several doses and more than one compound were tested alternately in the same dog. The blood pressure effect was simultaneously recorded.

Structure (SMILES): CC(C)(C)NCC(O)c1ccc(O)c(O)c1 (stereo not drawn) [Ref. Cpd. I, 3,4-Dihydroxy-alpha-(tert-butylaminomethyl)benzyl alcohol, reference compound]
- Mean Maximal Increase in the Heart Rate (heart rate; 0.17 mcg/kg (salt) i.v.): 20%
- Mean Maximal Increase in the Heart Rate (heart rate; 0.35 mcg/kg (salt) i.v.): 32%
- Mean Maximal Increase in the Heart Rate (heart rate; 0.7 mcg/kg (salt) i.v.): 44%
- ED50 ([1]; carbachol (Doryl) 1:5 million): 0.18 µg (base)
- Duration, Mean ([1]; dose 0.32 mcg (base)): 5 ± 1.4 min
- inhibition in vivo at 0.00017 mg/kg ([2]; 0.17 mcg/kg i.v.): 22%
- inhibition in vivo at 0.00035 mg/kg ([2]; 0.35 mcg/kg i.v.): 57%
- inhibition in vivo at 0.035 mg/kg ([3]; 10 min, 10 min): 34%
- inhibition in vivo at 0.07 mg/kg ([3]; 10 min, 10 min): 40%
- inhibition in vivo at 0.28 mg/kg ([3]; 10 min, 10 min): 66%
- inhibition in vivo at 0.035 mg/kg ([3]; 0.5 h, 30 min): 41%
- inhibition in vivo at 0.07 mg/kg ([3]; 0.5 h, 30 min): 60%
- inhibition in vivo at 0.28 mg/kg ([3]; 0.5 h, 30 min): 59%
- inhibition in vivo at 0.035 mg/kg ([3]; 1 h, 60 min): 44%
- inhibition in vivo at 0.07 mg/kg ([3]; 1 h, 60 min): 35%
- inhibition in vivo at 0.28 mg/kg ([3]; 1 h, 60 min): 46%
- inhibition in vivo at 0.035 mg/kg ([3]; 2 h, 120 min): 27%
- inhibition in vivo at 0.07 mg/kg ([3]; 2 h, 120 min): 30%
- inhibition in vivo at 0.28 mg/kg ([3]; 2 h, 120 min): 54%
- inhibition in vivo at 0.035 mg/kg ([3]; 3 h, 180 min): 3%
- inhibition in vivo at 0.28 mg/kg ([3]; 3 h, 180 min): 30%
- inhibition in vivo at 0.07 mg/kg ([3]; 4 h, 240 min): 0%
- need for stabilizing agent in solution [4]: required to stabilize them
- Mean Decrease in Diastolic Blood Pressure (diastolic blood pressure; 0.17 meg/kg (salt) i.v.): 13%
- Mean Decrease in Diastolic Blood Pressure (diastolic blood pressure; 0.35 meg/kg (salt) i.v.): 33%
- Mean Decrease in Diastolic Blood Pressure (diastolic blood pressure; 0.7 meg/kg (salt) i.v.): 41%
